Biological target: HDAC1 (Homo sapiens (Human), UniProt Q13547)
Sequence (Q13547 whole entry): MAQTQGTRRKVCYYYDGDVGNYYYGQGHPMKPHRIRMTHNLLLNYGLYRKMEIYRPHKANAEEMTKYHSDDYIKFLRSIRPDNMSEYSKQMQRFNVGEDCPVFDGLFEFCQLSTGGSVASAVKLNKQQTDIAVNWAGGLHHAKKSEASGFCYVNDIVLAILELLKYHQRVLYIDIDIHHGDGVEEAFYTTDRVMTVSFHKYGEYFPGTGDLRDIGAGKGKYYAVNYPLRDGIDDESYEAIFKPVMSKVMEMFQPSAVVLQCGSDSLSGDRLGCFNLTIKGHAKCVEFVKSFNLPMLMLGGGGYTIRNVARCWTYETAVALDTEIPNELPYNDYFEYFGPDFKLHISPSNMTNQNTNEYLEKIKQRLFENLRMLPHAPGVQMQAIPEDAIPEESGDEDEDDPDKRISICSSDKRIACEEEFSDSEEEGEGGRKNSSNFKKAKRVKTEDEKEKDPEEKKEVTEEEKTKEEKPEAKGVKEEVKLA
Test: HDAC activity inhibition assay, HDAC1
Format: biochemical
Conditions: Table 1; 2 hours pre-incubation
Method: (§1) The HDAC activity inhibition assay was performed as follows to determine the ability of a test compound to inhibit HDAC enzymatic activity. […] Following pre-incubation, Fluor-de-Lys™ substrate (Enzo Life Sciences, Plymouth Meeting, Pa., BML-KI104-0050) was added to a final concentration of 10 μM and plates were further incubated for 30 minutes at room temperature. […] IC50 values were calculated by using a sigmoidal dose-response (variable slope) equation in GraphPad Prism® 5 for Windows (GraphPad Software, La Jolla, Calif.).
Molecule `Cn1cc(/C=C/C(=O)Nc2ccccc2N)cn1` [A2] has an IC50 of 5 to 10 µM.
`Cc1cc(/C=C/C(=O)Nc2ccccc2N)on1` [A5] showed an IC50 of 10 to 20 µM.
`Nc1ccccc1NC(=O)/C=C/c1cc2ccccn2n1` [A8] showed an IC50 of under 1 µM.
Molecule `Nc1ccccc1NC(=O)/C=C/c1cnn(-c2ccccc2)c1` [A11] has an IC50 of 1 to 5 µM.
Molecule `Nc1ccccc1NC(=O)/C=C/c1cnn(CCOc2ccccc2)c1` [D3, (E)-N-(2-aminophenyl)-3-(1-(2-phenoxyethyl)-1H-pyrazol-4-yl)acrylamide] has an IC50 of under 1 µM.
`Nc1ccccc1NC(=O)/C=C/c1cnn(Cc2ccccc2)c1` [D4] showed an IC50 of under 1 µM.
For `Cc1cccc(Cn2cc(/C=C/C(=O)Nc3ccccc3N)cn2)n1` [D6], the IC50 was 1 to 5 µM.
In the case of `Nc1ccccc1NC(=O)/C=C/c1cnn(CCc2ccccc2)c1` [D7], the IC50 is reported as under 1 µM.
In the case of `Nc1ccccc1NC(=O)/C=C/c1cnn(CCCc2ccccc2)c1` [D8], the IC50 is reported as under 1 µM.
Work on `Nc1ccccc1NC(=O)/C=C/c1cnn(CCCCc2ccccc2)c1` [D9] yielded an IC50 of under 1 µM.
In the case of `Nc1ccccc1NC(=O)/C=C/c1cnn(CC(F)(F)c2ccccc2)c1` [D10], the IC50 is reported as under 1 µM.
`Nc1ccccc1NC(=O)/C=C/c1cnn(CC/C=C/c2ccccc2)c1` [D11] showed an IC50 of under 1 µM.
For `Nc1ccccc1NC(=O)/C=C/c1cnn(CCOCc2ccccc2)c1` [D14], the IC50 was under 1 µM.
In the case of `Nc1ccccc1NC(=O)/C=C/c1csc(C/C=C/c2ccccc2)n1` [E2, (E)-N-(2-aminophenyl)-3-(2-cinnamylthiazol-4-yl)acrylamide], the IC50 is reported as under 1 µM.

Biological target: HDAC2 (Homo sapiens (Human), UniProt Q92769)
Sequence (Q92769 whole entry): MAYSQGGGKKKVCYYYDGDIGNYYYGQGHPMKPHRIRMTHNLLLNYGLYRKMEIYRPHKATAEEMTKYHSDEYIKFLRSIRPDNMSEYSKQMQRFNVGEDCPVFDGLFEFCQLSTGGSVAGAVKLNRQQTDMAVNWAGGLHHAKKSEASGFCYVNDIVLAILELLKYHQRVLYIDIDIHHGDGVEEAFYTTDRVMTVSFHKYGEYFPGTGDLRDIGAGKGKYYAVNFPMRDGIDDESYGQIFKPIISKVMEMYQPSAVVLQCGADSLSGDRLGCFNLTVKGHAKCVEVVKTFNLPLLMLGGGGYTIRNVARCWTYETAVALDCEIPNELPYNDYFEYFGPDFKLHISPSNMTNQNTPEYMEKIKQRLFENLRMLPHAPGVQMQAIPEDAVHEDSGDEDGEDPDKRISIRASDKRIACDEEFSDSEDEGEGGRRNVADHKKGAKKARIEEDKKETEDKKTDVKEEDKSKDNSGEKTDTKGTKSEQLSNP
Test: HDAC activity inhibition assay, HDAC2
Format: biochemical
Conditions: Table 1; 2 hours pre-incubation
Method: as §1
With `Cn1cc(/C=C/C(=O)Nc2ccccc2N)cn1` [A2] the IC50 was 10 to 20 µM.
`Cc1cc(/C=C/C(=O)Nc2ccccc2N)on1` [A5] showed an IC50 of 10 to 20 µM.
`Nc1ccccc1NC(=O)/C=C/c1cc2ccccn2n1` [A8] showed an IC50 of 1 to 5 µM.
In the case of `Nc1ccccc1NC(=O)/C=C/c1cnn(-c2ccccc2)c1` [A11], the IC50 is reported as 1 to 5 µM.
Molecule `Nc1ccccc1NC(=O)/C=C/c1cnn(CCOc2ccccc2)c1` [D3, (E)-N-(2-aminophenyl)-3-(1-(2-phenoxyethyl)-1H-pyrazol-4-yl)acrylamide] has an IC50 of under 1 µM.
Molecule `Nc1ccccc1NC(=O)/C=C/c1cnn(Cc2ccccc2)c1` [D4] has an IC50 of 1 to 5 µM.
Molecule `Cc1cccc(Cn2cc(/C=C/C(=O)Nc3ccccc3N)cn2)n1` [D6] has an IC50 of 1 to 5 µM.
`Nc1ccccc1NC(=O)/C=C/c1cnn(CCc2ccccc2)c1` [D7] gave an IC50 of 1 to 5 µM.
Molecule `Nc1ccccc1NC(=O)/C=C/c1cnn(CCCc2ccccc2)c1` [D8] has an IC50 of under 1 µM.
For `Nc1ccccc1NC(=O)/C=C/c1cnn(CCCCc2ccccc2)c1` [D9], the IC50 was under 1 µM.
With `Nc1ccccc1NC(=O)/C=C/c1cnn(CC(F)(F)c2ccccc2)c1` [D10] the IC50 was 1 to 5 µM.
With `Nc1ccccc1NC(=O)/C=C/c1cnn(CC/C=C/c2ccccc2)c1` [D11] the IC50 was under 1 µM.
`Nc1ccccc1NC(=O)/C=C/c1cnn(CCOCc2ccccc2)c1` [D14] gave an IC50 of under 1 µM.
In the case of `Nc1ccccc1NC(=O)/C=C/c1csc(C/C=C/c2ccccc2)n1` [E2, (E)-N-(2-aminophenyl)-3-(2-cinnamylthiazol-4-yl)acrylamide], the IC50 is reported as 1 to 5 µM.

Biological target: HDAC3/NcoR2 (Homo sapiens (Human), UniProt O15379)
Sequence (O15379 whole entry): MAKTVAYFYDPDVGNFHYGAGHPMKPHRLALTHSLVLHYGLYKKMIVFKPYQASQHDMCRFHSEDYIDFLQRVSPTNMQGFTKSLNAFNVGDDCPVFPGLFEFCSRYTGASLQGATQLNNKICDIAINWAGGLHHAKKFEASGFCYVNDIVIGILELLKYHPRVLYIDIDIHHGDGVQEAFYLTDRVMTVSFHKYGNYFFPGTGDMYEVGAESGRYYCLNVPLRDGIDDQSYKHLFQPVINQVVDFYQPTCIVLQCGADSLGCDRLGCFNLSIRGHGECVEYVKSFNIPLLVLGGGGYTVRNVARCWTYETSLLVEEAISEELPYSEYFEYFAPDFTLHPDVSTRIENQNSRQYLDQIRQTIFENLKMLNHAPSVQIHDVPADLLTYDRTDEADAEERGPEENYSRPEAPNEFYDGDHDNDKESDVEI
Sequence (Q9Y618 395-489 partner): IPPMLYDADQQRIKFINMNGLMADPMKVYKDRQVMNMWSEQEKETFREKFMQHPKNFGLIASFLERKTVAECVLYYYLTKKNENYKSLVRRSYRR
Test: HDAC activity inhibition assay, HDAC3/NcoR2
Format: biochemical
Conditions: Table 1; 2 hours pre-incubation
Method: as §1
For `Cn1cc(/C=C/C(=O)Nc2ccccc2N)cn1` [A2], the IC50 was under 1 µM.
Work on `Cc1cc(/C=C/C(=O)Nc2ccccc2N)on1` [A5] yielded an IC50 of under 1 µM.
Work on `Nc1ccccc1NC(=O)/C=C/c1cc2ccccn2n1` [A8] yielded an IC50 of under 1 µM.
`Nc1ccccc1NC(=O)/C=C/c1cnn(-c2ccccc2)c1` [A11] showed an IC50 of under 1 µM.
`Nc1ccccc1NC(=O)/C=C/c1cnn(CCOc2ccccc2)c1` [D3, (E)-N-(2-aminophenyl)-3-(1-(2-phenoxyethyl)-1H-pyrazol-4-yl)acrylamide] gave an IC50 of under 1 µM.
With `Nc1ccccc1NC(=O)/C=C/c1cnn(Cc2ccccc2)c1` [D4] the IC50 was under 1 µM.
Molecule `Nc1ccccc1NC(=O)/C=C/c1cnn(CCc2ccccc2)c1` [D7] has an IC50 of under 1 µM.
With `Nc1ccccc1NC(=O)/C=C/c1cnn(CCCc2ccccc2)c1` [D8] the IC50 was under 1 µM.
`Nc1ccccc1NC(=O)/C=C/c1cnn(CCCCc2ccccc2)c1` [D9] gave an IC50 of under 1 µM.
With `Nc1ccccc1NC(=O)/C=C/c1cnn(CC(F)(F)c2ccccc2)c1` [D10] the IC50 was under 1 µM.
With `Nc1ccccc1NC(=O)/C=C/c1cnn(CC/C=C/c2ccccc2)c1` [D11] the IC50 was under 1 µM.
In the case of `Nc1ccccc1NC(=O)/C=C/c1cnn(CCOCc2ccccc2)c1` [D14], the IC50 is reported as under 1 µM.
Work on `Nc1ccccc1NC(=O)/C=C/c1csc(C/C=C/c2ccccc2)n1` [E2, (E)-N-(2-aminophenyl)-3-(2-cinnamylthiazol-4-yl)acrylamide] yielded an IC50 of under 1 µM.

Test system: not listed separately
Test: Acid stability determination
Format: physicochemical
Conditions: 100 μM in 0.01 M HCl, 50° C.
Method: A 100 μM solution of test compound was prepared by dilution of a 10 mM DMSO stock solution in a 0.01 M solution of HCl in deionized water. Immediately after mixing, an aliquot (100 μL) was sampled and analyzed by HPLC/UV. The area under the compound peak was determined and used as the time zero reference point. The remainder of the acid sample was incubated at 50° C. and samples were taken after 2, 4, and 24 hours of incubation. On a few occasions, samples were taken at 30 rather than 24 hours. These were analyzed by the same HPLC/UV method and the area of the peak corresponding to the test compound was measured. Percent remaining at a given time point was then calculated as the ratio of the area under the peak after incubation to that at time zero times 100. In those cases where a 30 hour time point was recorded, the percent remaining at 24 hours was obtained by interpolation of the percent remaining versus time curve assuming a unimolecular process, i.e. a monoexponential decay. Percent remaining after 24 hours incubation are presented in Tables 2 and 4 below, where A corresponds to more than 60%, B is between 40 and 60%, C covers 20 to 40% and D means less than 20%.
For `Cn1cc(/C=C/C(=O)Nc2ccccc2N)cn1` [A2], the “acid stability (percent remaining after 24 hours incubation)” value was “B (B is between 40 and 60%)”.
With `Cc1cc(/C=C/C(=O)Nc2ccccc2N)on1` [A5] the “acid stability (percent remaining after 24 hours incubation)” value was “B (B is between 40 and 60%)”.
In the case of `Nc1ccccc1NC(=O)/C=C/c1cc2ccccn2n1` [A8], the “acid stability (percent remaining after 24 hours incubation)” value is reported as “B (B is between 40 and 60%)”.
For `Nc1ccccc1NC(=O)/C=C/c1cnn(-c2ccccc2)c1` [A11], the “acid stability (percent remaining after 24 hours incubation)” value was “A (A corresponds to more than 60%)”.
In the case of `Nc1ccccc1NC(=O)/C=C/c1cnn(CCOc2ccccc2)c1` [D3, (E)-N-(2-aminophenyl)-3-(1-(2-phenoxyethyl)-1H-pyrazol-4-yl)acrylamide], the “acid stability (percent remaining after 24 hours incubation)” value is reported as “A (A corresponds to more than 60%)”.
With `Nc1ccccc1NC(=O)/C=C/c1cnn(Cc2ccccc2)c1` [D4] the “acid stability (percent remaining after 24 hours incubation)” value was “A (A corresponds to more than 60%)”.
For `Nc1ccccc1NC(=O)/C=C/c1cnn(CCc2ccccc2)c1` [D7], the “acid stability (percent remaining after 24 hours incubation)” value was “B (B is between 40 and 60%)”.
With `Nc1ccccc1NC(=O)/C=C/c1cnn(CCCCc2ccccc2)c1` [D9] the “acid stability (percent remaining after 24 hours incubation)” value was “A (A corresponds to more than 60%)”.
With `Nc1ccccc1NC(=O)/C=C/c1cnn(CCOCc2ccccc2)c1` [D14] the “acid stability (percent remaining after 24 hours incubation)” value was “B (B is between 40 and 60%)”.
For `Nc1ccccc1NC(=O)/C=C/c1csc(C/C=C/c2ccccc2)n1` [E2, (E)-N-(2-aminophenyl)-3-(2-cinnamylthiazol-4-yl)acrylamide], the “acid stability (percent remaining after 24 hours incubation)” value was “A (A corresponds to more than 60%)”.

Test system: Frataxin (FXN) mRNA
Test: Effect of HDAC inhibitors on frataxin (FXN) mRNA expression in Friedreich's ataxia patient primary lymphocytes
Format: cell-based, human
Conditions: Homo sapiens, Lymphocyte; Friedreich's ataxia patient primary lymphocytes, 48 hours; read-out: FXN 2x (concentration required for a 2-fold increase in FXN mRNA)
Method: Blood is collected from Friedreich's ataxia patient donors into tubes containing the anti-coagulant EDTA. Primary lymphocytes are isolated using Lymphocyte Separation Medium (MP Biomedicals, Solon, Ohio) following the manufacturer's instructions and including a few modifications made by Repligen. After a final wash in Phosphate Buffered Saline (PBS), the cells are distributed into a 6-well cell culture plate in cell growth medium. The test HDAC inhibitor compound is added to cells in a dose escalating manner (usually concentrations range from 1 to 10 μM) and 0.1% DMSO is added to one well of cells as a no treatment control. Cells are incubated for 48 hours at 37° C. in a CO2 incubator; cell counts are taken using a Countess automated cell counter (Invitrogen, Carlsbad, Calif.). Equivalent numbers of cells for all treatment conditions are pelleted by centrifugation and resuspended in cell lysis buffer. Total RNA is isolated from approximately 1×10^6 primary lymphocytes using a RNeasy Mini Kit (Qiagen, Valencia, Calif.), following the manufacturer's instructions and including an optional on-column DNAse digestion step. The isolation is performed either manually or using the QIAcube (Qiagen, Valencia, Calif.), an instrument that automates much of the isolation procedure. The RNA yield and concentration is determined using a Nanodrop spectrophotometer (Thermo Fisher Scientific, Waltham, Mass.) and depending on the RNA concentration, one of two protocols is used to measure frataxin (FXN) transcript levels. For samples containing at least 15 ng/μL RNA a TaqMan® Probe-based (Applied Biosystems, Carlsbad, Calif.) qRT-PCR method is used, while for samples containing less than 15 ng/μL RNA a SYBR Green qRT-PCR method is used. In the TaqMan® Probe-based method specific primer/probe pairs for FXN and GAPDH are multiplexed in each reaction. In the SYBR Green method FXN and GAPDH are amplified in separate reactions. In both methods each RNA sample is analyzed in triplicate (preferably) or duplicate (minimally) using a one-step qRT-PCR master mix that contains all the components necessary for cDNA synthesis and PCR amplification in a single, continuous reaction. After cycling is complete, MxPro Software (Agilent Technologies, Santa Clara, Calif.) is used to analyze the collected data and determine the relative amount of FXN mRNA compared to a control sample. An adaptive baseline method is used for baseline correction whereby an algorithm automatically selects the appropriate baseline cycles for each well and each dye. An amplification-based threshold is set and the corresponding threshold cycle, or Ct, is obtained for calculating target concentration. The Ct values for each target gene (FXN and GAPDH) for each replicate series are averaged. The amount of FXN (or GAPDH) in the sample is determined as the relative quantity to the calibrator where the calibrator sample is assigned an arbitrary quantity of 1. The following equation is used: Relative quantity to the calibrator=2^−ΔCt where ΔCt=(Ct_gene)unknown−(Ct_gene)calibrator, gene is either FXN or GAPDH, calibrator is a DMSO control sample, and unknown is a HDACi treated sample. The relative quantity of FXN is normalized to cell number and RNA input. Data is reported in Tables 2 and 4 below, where the concentration required for a 2-fold increase in FXN mRNA is reported as A if less than 5 μM, B if between 5 and 10 μM, C if greater than 10 μM.
`Nc1ccccc1NC(=O)/C=C/c1cnn(CCOc2ccccc2)c1` [D3, (E)-N-(2-aminophenyl)-3-(1-(2-phenoxyethyl)-1H-pyrazol-4-yl)acrylamide] gave an EC (2-fold FXN mRNA) of 5 to 10 µM.
In the case of `Nc1ccccc1NC(=O)/C=C/c1cnn(Cc2ccccc2)c1` [D4], the EC (2-fold FXN mRNA) is reported as over 10 µM.
Molecule `Cc1cccc(Cn2cc(/C=C/C(=O)Nc3ccccc3N)cn2)n1` [D6] has an EC (2-fold FXN mRNA) of over 10 µM.
For `Nc1ccccc1NC(=O)/C=C/c1cnn(CCc2ccccc2)c1` [D7], the EC (2-fold FXN mRNA) was 5 to 10 µM.
For `Nc1ccccc1NC(=O)/C=C/c1cnn(CCCc2ccccc2)c1` [D8], the EC (2-fold FXN mRNA) was over 10 µM.
With `Nc1ccccc1NC(=O)/C=C/c1cnn(CCCCc2ccccc2)c1` [D9] the EC (2-fold FXN mRNA) was under 5 µM.
In the case of `Nc1ccccc1NC(=O)/C=C/c1cnn(CC(F)(F)c2ccccc2)c1` [D10], the EC (2-fold FXN mRNA) is reported as over 10 µM.
For `Nc1ccccc1NC(=O)/C=C/c1cnn(CC/C=C/c2ccccc2)c1` [D11], the EC (2-fold FXN mRNA) was 5 to 10 µM.
`Nc1ccccc1NC(=O)/C=C/c1cnn(CCOCc2ccccc2)c1` [D14] showed an EC (2-fold FXN mRNA) of 5 to 10 µM.
